Source: patent US6869931B1, “Inhibition of angiogenesis by high molecular weight kininogen domain 3 peptide analogs” (Temple University - Of The Commonwealth System of Higher …, priority 1998, dated 2005)
Residues, ends and D or L forms follow the SMILES beside them. No end group written: not given here.

system: human umbilical vein endothelial cells (HUVEC); conditions: 48 h
Protocol: Human umbilical vein endothelial cells (HUVEC) were isolated and cultured as previously described (Graham et al., Blood 91:3300-7 1998). Cells were of passage 3 or lower.
To assess the effect of peptides on endothelial cell proliferation, HUVEC were suspended at a concentration of 30,000 cells/ml in M199 containing 2% FCS. One hundred microliters of this suspension was then plated in individual wells of a 96 well microplate precoated with 1% gelatin. […] Cells were then incubated for 48 hours at 37° C., at which time the relative numbers of cells in each well were determined using the Cell Titer® Aqueous cell proliferation assay (Promega, Madison, Wis.). […] The significance of differences in relative endothelial cell proliferation cell numbers at the end of the proliferation assays was determined using the Student's two-tailed T-test for paired samples. The IC50 was then calculated for each compound.

Molecule | IC50
H-NNATFYFKIDNVKKAR-OH [SEQ ID NO:10, Asn-Asn-Ala-Thr-Phe-Tyr-Phe-Lys-Ile-Asp-Asn-Val-Lys-Lys-Ala-Arg] | < 0.8 µM
H-TITKLNAENNATFYFK-OH [SEQ ID NO:9, Thr-Ile-Thr-Lys-Leu-Asn-Ala-Glu-Asn-Asn-Ala-Thr-Phe-Tyr-Phe-Lys] | < 0.8 µM
YFIDFVARETTASKES-OH [SEQ ID NO:20, Tyr-Phe-Ile-Asp-Phe-Val-Ala-Arg-Glu-Thr-Thr-Ala-Ser-Lys-Glu-Ser] | 28 µM
CC[C@H](C)[C@H](NC(=O)[C@H](CCCCN)NC(=O)[C@@H](N)[C@@H](C)O)C(=O)N[C@@H](CS)C(=O)N[C@H](C(=O)NCC(=O)N[C@@H](CS)C(=O)N1CCC[C@H]1C(=O)N[C@@H](CCCNC(=N)N)C(=O)N[C@@H](CC(=O)O)C(=O)N[C@H](C(=O)N1CCC[C@H]1C(=O)N[C@H](C(=O)N[C@@H](CC(N)=O)C(=O)N[C@@H](CO)C(=O)N1CCC[C@H]1C(=O)O)[C@@H](C)O)[C@@H](C)CC)C(C)C [SEQ ID NO:11, Thr-Lys-Ile-Cys-Val-Gly-Cys-Pro-Arg-Asp-Ile-Pro-Thr-Asn-Ser-Pro] (H-TKICVGCPRDIPTNSP-OH) | 30 µM
H-LDANAEVYVVPWEKKI-OH [SEQ ID NO:16, Leu-Asp-Ala-Asn-Ala-Glu-Val-Tyr-Val-Val-Pro-Trp-Glu-Lys-Lys-Ile] | 44 µM
H-ETKKLGQSLDANAEVY-OH [SEQ ID NO:15, Glu-Thr-Lys-Lys-Leu-Gly-Gln-Ser-Leu-Asp-Ala-Asn-Ala-Glu-Val-Tyr] | 42 µM

same assay, conditions: HUVEC, bFGF-induced proliferation

Molecule | Inhibition of endothelial cell proliferation (result in words)
YFIDFVARETTASKES-OH [SEQ ID NO:20, Tyr-Phe-Ile-Asp-Phe-Val-Ala-Arg-Glu-Thr-Thr-Ala-Ser-Lys-Glu-Ser] | inhibits endothelial cell proliferation
